Results taken from patent US11945822B2, “Pyrazolo-triazine and/or pyrazolo-pxrimidine derivatives as selective inhibitor of cyclin dependent kinase” (QURIENT CO., LTD., priority 2018, dated 2024).
Where two headings read alike, the source gives them in different places.

Columns and labels:
A2780 = test: Cellular A2780 viability assay (CellTiter-Glo, 72 hours); type: cell-based; settings: Homo sapiens
In short: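 Cells seeded at 1×10^4/well (MM.1S), 5×10^3 (OVCAR-3) or 1×10^3 (A2780), grown in RPMI-1640 with 10% FBS. After 24 h, compound added at 0.0015–10 uM, final DMSO below 0.1%, for 72 h at 37° C. Viability read by CellTiter-Glo luminescence in duplicate, with curve fitting.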

CDK5/p25 = biological target: T1, CDK5/p25 (Homo sapiens, UniProt Q00535); test: Enzymatic assay for CDK5 (FRET based LANCE Ultra kinase assay); type: biochemical
T1 construct: purchased Invitrogen PR8543B
In short: (§1)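 TR-FRET (LANCE Ultra) kinase assay at ATP Km, ULight-MBP peptide substrate (68 nM), 8-dose 4-fold compound series in DMSO. Enzymes: […]; 60 min at 23° C., stopped with EDTA plus Eu-anti-phospho-MBP antibody, read 665/615 nm after 60 min.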

CDK1/Cyclin B = biological target: T2, CDK1/Cyclin B (Homo sapiens, UniProt P06493); test: Enzymatic assay for CDK1 (FRET based LANCE Ultra kinase assay); type: biochemical
T2 construct: purchased Invitrogen PR4768C
In short: as §1

MV4-11 = test: Cellular MV4-11 viability assay (CellTiter-Glo, 72 hours); type: cell-based; settings: Homo sapiens
In short: (§2)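 72 h treatment, 37 °C, 5% CO2; DMSO ctrl, final <0.1%; CellTiter-Glo luminescence; n=2.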

RPMI-8226 = test: Cellular RPMI-8226 viability assay (CellTiter-Glo, 72 hours); type: cell-based; settings: Homo sapiens
In short: as §2

CDK2/Cyclin A = biological target: T3, CDK2/Cyclin A (Homo sapiens, UniProt P24941); test: Enzymatic assay for CDK2 (FRET based LANCE Ultra kinase assay); type: biochemical
T3 construct: purchased Invitrogen PV6290
In short: as §1

H460 = test: Cellular H460 viability assay (CellTiter-Glo, 72 hours); type: cell-based; settings: Homo sapiens, NCI-H460
In short: as §2

CDK7/Cyclin H/MNAT1 = biological target: T4, CDK7/Cyclin H/MNAT1 (Homo sapiens, UniProt P50613); test: Enzymatic assay for CDK7 (FRET based LANCE Ultra kinase assay); type: biochemical
T4 construct: purchased Invitrogen PR6749B
In short: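 LANCE Ultra TR-FRET kinase assay using a ULight-labeled peptide substrate and a Eu-labeled anti-phospho antibody, with ATP at its Km. Purified CDK/cyclin complex was added to compound after brief centrifugation.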

MOLT-4 = test: Cellular MOLT-4 viability assay (CellTiter-Glo, 72 hours); type: cell-based; settings: Homo sapiens, MOLT4 viability assay
In short: as §2

MM.1S = test: Cellular MM.1S viability assay (CellTiter-Glo, 72 hours); type: cell-based; settings: Homo sapiens, MM1.S
Description: Human T-cell acute lymphoblastic leukemia cell line, MOLT-4 (ATCC, Cat #CRL-1582), Human multiple myeloma cell line, RPMI-8226 (Invitrogen, Cat #22400-089) and MM.1S (ATCC, Cat #CRL-2974), NSCLC (Non-small cell lung cancer) cell line H460 (ATCC, Cat #HTB-177), Human colon colorectal carcinoma cell line HCT116 (ATCC, Cat #CCL-247), Human acute monocytic leukemia cell line MV4-11 (ATCC, Cat #CRL-9591), OVCAR-3 (ATCC, Cat #HTB-161) and A2780 (ECACC, Cat #93112519) were obtained from ATCC. Cells were grown in RPMI-1640 media (Invitrogen, Cat #22400-089) supplemented with 10% FBS (Invitrogen, Cat #10099141) and 1% penicillin/streptomycin (Invitrogen, Cat #15070063) and cultured at 37° C., 5% CO2 in a humidified chamber. All cell lines were routinely tested for mycoplasma.
The effect of the CDK7 inhibitor to inhibit the growth of target cancer cells was evaluated through the 72 hours time period of viability assay. Briefly, the candidate cell line ware plated in 96 well plate at the following density of cells respectively. 1×10^4 cells/well for MOLT-4, RPMI-8226, MV4-11 and MM.1S, 5×10^3 for H460, HCT116 and OVCAR-3 and IX 10^3 for A2780. After 24 hours, the cells were treated with various concentrations of the compound (ranging from 0.0015 uM to 10 uM). DMSO solvent without compound served as a control and final DMSO concentration less than 0.1%. After 72 hours of incubation at 37° C., 5% CO2 incubator, cells were analyzed for the viability using the CellTiter-Glo Luminescent Cell Viability Assay (Promega, Cat #G7570). All viability assays were performed in duplicate and Luminescence was read using an Envision (Perkin Elmer, USA). Data was analyzed using XLfit software.

HCT116 = test: Cellular HCT116 viability assay (CellTiter-Glo, 72 hours); type: cell-based; settings: Homo sapiens, HCT-116
In short: as §2

[1] = read-out: CDK5 enzymatic activity (IC50 range)
[2] = read-out: CDK1 enzymatic activity (IC50 range)
[3] = read-out: CDK2 enzymatic activity (IC50 range)
[4] = read-out: CDK7 enzymatic activity (IC50 range)

T2 sequence (P06493 whole entry): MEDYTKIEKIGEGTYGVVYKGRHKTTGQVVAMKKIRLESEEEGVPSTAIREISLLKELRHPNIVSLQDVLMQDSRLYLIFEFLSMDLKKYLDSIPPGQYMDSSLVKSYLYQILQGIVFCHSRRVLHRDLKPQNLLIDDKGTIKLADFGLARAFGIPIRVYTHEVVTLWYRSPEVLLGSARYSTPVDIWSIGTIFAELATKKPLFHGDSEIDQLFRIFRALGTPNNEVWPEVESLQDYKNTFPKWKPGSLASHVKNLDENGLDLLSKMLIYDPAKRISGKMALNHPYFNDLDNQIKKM
T2 sequence (P14635 whole entry partner): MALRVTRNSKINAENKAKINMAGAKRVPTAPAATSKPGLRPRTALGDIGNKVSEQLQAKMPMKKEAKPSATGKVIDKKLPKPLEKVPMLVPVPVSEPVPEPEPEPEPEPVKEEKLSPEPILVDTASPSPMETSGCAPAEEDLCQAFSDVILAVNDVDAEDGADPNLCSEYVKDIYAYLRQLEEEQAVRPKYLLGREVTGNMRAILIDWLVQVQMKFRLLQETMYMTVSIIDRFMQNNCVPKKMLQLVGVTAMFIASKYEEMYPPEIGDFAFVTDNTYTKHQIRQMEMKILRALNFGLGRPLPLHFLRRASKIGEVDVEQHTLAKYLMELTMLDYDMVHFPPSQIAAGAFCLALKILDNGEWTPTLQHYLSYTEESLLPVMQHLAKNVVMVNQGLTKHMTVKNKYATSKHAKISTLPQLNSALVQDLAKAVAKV
T1 sequence (Q00535 whole entry): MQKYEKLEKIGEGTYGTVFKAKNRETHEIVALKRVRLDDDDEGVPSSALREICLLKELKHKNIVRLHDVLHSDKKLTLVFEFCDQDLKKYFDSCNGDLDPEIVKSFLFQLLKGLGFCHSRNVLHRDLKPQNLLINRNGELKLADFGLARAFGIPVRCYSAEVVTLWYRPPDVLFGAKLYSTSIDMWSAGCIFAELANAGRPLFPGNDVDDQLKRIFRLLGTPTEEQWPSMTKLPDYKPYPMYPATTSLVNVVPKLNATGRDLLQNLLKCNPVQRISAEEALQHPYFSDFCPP
T1 sequence (Q15078 99-307 partner limits assumed): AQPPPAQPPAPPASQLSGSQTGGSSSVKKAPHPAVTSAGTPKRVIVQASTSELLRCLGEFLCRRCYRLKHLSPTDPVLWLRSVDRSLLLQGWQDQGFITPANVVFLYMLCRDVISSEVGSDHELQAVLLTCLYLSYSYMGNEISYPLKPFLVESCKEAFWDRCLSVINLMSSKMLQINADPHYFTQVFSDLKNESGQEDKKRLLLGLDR
T4 sequence (P50613 whole entry): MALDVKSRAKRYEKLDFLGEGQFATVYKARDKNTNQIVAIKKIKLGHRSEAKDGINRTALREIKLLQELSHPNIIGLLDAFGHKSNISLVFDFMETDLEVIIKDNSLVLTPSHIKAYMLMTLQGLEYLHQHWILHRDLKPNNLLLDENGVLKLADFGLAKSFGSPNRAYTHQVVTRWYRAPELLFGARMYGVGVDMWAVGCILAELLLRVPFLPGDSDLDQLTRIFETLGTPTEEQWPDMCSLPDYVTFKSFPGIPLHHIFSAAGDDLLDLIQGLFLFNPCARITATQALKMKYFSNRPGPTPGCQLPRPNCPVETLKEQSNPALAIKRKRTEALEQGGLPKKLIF
T4 sequence (P51946 whole entry partner): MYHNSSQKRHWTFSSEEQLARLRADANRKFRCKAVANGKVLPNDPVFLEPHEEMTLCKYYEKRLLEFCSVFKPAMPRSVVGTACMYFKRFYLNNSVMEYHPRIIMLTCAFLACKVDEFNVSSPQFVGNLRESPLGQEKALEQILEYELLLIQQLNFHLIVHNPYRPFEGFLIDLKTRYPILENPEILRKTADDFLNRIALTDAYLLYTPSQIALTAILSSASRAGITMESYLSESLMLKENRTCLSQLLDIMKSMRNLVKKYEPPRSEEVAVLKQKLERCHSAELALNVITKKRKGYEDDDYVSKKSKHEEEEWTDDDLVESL
T4 sequence (P51948 whole entry partner): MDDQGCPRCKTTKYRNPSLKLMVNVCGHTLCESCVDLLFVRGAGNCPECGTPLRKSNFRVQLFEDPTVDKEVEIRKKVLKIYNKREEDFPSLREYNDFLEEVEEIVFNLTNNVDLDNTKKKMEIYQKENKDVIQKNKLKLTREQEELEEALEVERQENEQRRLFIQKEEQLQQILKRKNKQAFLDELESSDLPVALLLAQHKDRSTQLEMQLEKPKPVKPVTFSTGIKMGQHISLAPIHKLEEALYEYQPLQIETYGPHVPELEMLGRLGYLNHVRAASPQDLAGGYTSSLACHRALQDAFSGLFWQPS

Row | SMILES | IC50 (A2780) [nM] | IC50 (CDK5/p25; [1]) [nM] | IC50 (CDK1/Cyclin B; [2]) [nM] | IC50 (MV4-11) [nM] | IC50 (CDK2/Cyclin A; [3]) [nM] | IC50 (H460) [nM] | CDK1/CDK7: Selectivity of CDK7 inhibition over CDK1 inhibition (CDK7/Cyclin H/MNAT1; CDK7 over CDK1) | IC50 (CDK7/Cyclin H/MNAT1; [4]) [nM] | IC50 (MM.1S) [nM] | CDK2/CDK7: Selectivity of CDK7 inhibition over CDK2 inhibition (CDK7/Cyclin H/MNAT1; CDK7 over CDK2) | CDK5/CDK7: Selectivity of CDK7 inhibition over CDK5 inhibition (CDK7/Cyclin H/MNAT1; CDK7 over CDK5) | further results
1 | CC(C)c1cnn2c(NCc3ccccc3-n3cccn3)nc(N3CCNCC3)nc12 [Compound 2] | ≤ 1000 | 100 to 1000 | > 1000 | < 1000 | 100 to 1000 | < 1000 | A (A=greater than 200 fold) | 100 to 1000 |  | B (B=less than 200 fold, but greater than 20 fold) | B (B=less than 200 fold, but greater than 20 fold) | IC50 (MOLT-4): 1000 to 10000 nM
2 | CC(C)c1cnn2c(NCc3ccccc3-n3cccn3)nc(N3CCC(O)CC3)nc12 [Compound 4] | 1000 to 10000 | 100 to 1000 | > 1000 |  | 100 to 1000 | 1000 to 10000 | B (B=less than 200 fold, but greater than 20 fold) | < 100 |  | B (B=less than 200 fold, but greater than 20 fold) | B (B=less than 200 fold, but greater than 20 fold) | IC50 (MOLT-4): > 10000 nM
3 | CC(C)(C)c1cnn2c(NCc3c(F)cccc3-n3cccn3)nc(N3CCC(N)CC3)nc12 [Compound 13] |  | 100 to 1000 | > 1000 |  | > 1000 | < 1000 | A (A=greater than 200 fold) | < 100 | ≤ 1000 | B (B=less than 200 fold, but greater than 20 fold) | B (B=less than 200 fold, but greater than 20 fold) | 
4 | CNC(=O)c1cccc(F)c1CNc1nc(N2CCC(N)CC2)nc2c(C(C)(C)C)cnn12 [Compound 20] |  | > 1000 | > 1000 | < 1000 | > 1000 | < 1000 | A (A=greater than 200 fold) | < 100 | 1000 to 10000 | A (A=greater than 200 fold) | A (A=greater than 200 fold) | 
5 | CC(C)c1cnn2c(NCc3ccccc3-c3cc4ccccc4[nH]3)nc(N3CCC(N)(CO)CC3)nc12 [Compound 129] | ≤ 1000 | 100 to 1000 | > 1000 | < 1000 | 100 to 1000 | < 1000 | A (A=greater than 200 fold) | < 100 |  | A (A=greater than 200 fold) | B (B=less than 200 fold, but greater than 20 fold) | IC50 (RPMI-8226): < 1000 nM
6 | CC(C)c1cnn2c(NCc3ccccc3-n3cc4cc(C(=O)NC5COC5)ccc4n3)nc(N3CCC(N)CC3)nc12 [Compound 176] |  | 100 to 1000 | 100 to 1000 | < 1000 | 100 to 1000 | < 1000 | B (B=less than 200 fold, but greater than 20 fold) | < 100 | ≤ 1000 | B (B=less than 200 fold, but greater than 20 fold) | B (B=less than 200 fold, but greater than 20 fold) | 

Second part, led by results:

Row | IC50 (A2780) [nM] | IC50 (CDK5/p25; [1]) [nM] | IC50 (CDK1/Cyclin B; [2]) [nM] | IC50 (MV4-11) [nM] | IC50 (CDK2/Cyclin A; [3]) [nM] | IC50 (H460) [nM] | CDK1/CDK7: Selectivity of CDK7 inhibition over CDK1 inhibition (CDK7/Cyclin H/MNAT1; CDK7 over CDK1) | IC50 (CDK7/Cyclin H/MNAT1; [4]) [nM] | IC50 (MM.1S) [nM] | SMILES | CDK2/CDK7: Selectivity of CDK7 inhibition over CDK2 inhibition (CDK7/Cyclin H/MNAT1; CDK7 over CDK2) | CDK5/CDK7: Selectivity of CDK7 inhibition over CDK5 inhibition (CDK7/Cyclin H/MNAT1; CDK7 over CDK5) | further results
7 | ≤ 1000 | 100 to 1000 | > 1000 | < 1000 | 100 to 1000 | < 1000 | A (A=greater than 200 fold) | < 100 |  | CC(C)c1cnn2c(NCc3ccccc3-c3cc4ccccc4[nH]3)nc(N3CCOC(CN)C3)nc12 (racemic) [Compound 130] | B (B=less than 200 fold, but greater than 20 fold) | B (B=less than 200 fold, but greater than 20 fold) | IC50 (RPMI-8226): < 1000 nM
8 | ≤ 1000 |  |  | < 1000 |  | < 1000 |  |  |  | CC(C)c1cnn2c(NCc3ccccc3-c3cc4ccccc4[nH]3)nc(NCC3CNCCO3)nc12 (racemic) [Compound 274] |  |  | IC50 (CDK5/p25; read-out: CDK5 enzymatic activity (IC50 activity range)): 100 to 1000 nM; IC50 (CDK1/Cyclin B; read-out: CDK1 enzymatic activity (IC50 activity range)): > 1000 nM; IC50 (RPMI-8226): 1000 to 10000 nM; IC50 (CDK2/Cyclin A; read-out: CDK2 enzymatic activity (IC50 activity range)): > 1000 nM; CDK1/CDK7: Selectivity of CDK7 inhibition over CDK1 inhibition (CDK7/Cyclin H/MNAT1; CDK1/CDK7): A (A=greater than 200 fold); CDK2/CDK7: Selectivity of CDK7 inhibition over CDK2 inhibition (CDK7/Cyclin H/MNAT1; CDK2/CDK7): B (B=less than 200 fold, but greater than 20 fold); CDK5/CDK7: Selectivity of CDK7 inhibition over CDK5 inhibition (CDK7/Cyclin H/MNAT1; CDK5/CDK7): B (B=less than 200 fold, but greater than 20 fold); IC50 (CDK7/Cyclin H/MNAT1; read-out: CDK7 enzymatic activity (IC50 activity range)): < 100 nM
9 |  | < 100 | > 1000 | < 1000 | 100 to 1000 | < 1000 | A (A=greater than 200 fold) | < 100 | ≤ 1000 | Cc1[nH]c(-c2ccccc2CNc2nc(N3CCC(N)CC3)nc3c(C(C)C)cnn23)nc1C(=O)NC1CCOCC1 [Compound 178] | B (B=less than 200 fold, but greater than 20 fold) | C (C=less than 20 fold) | 
10 | ≤ 1000 | > 1000 | > 1000 | < 1000 | 100 to 1000 | < 1000 | A (A=greater than 200 fold) | < 100 |  | CC(C)c1cnn2c(NCc3ccccc3-n3ccc(C(C)(C)O)n3)nc(NC[C@H]3CCNC[C@@H]3O)nc12 [Compound 233] | B (B=less than 200 fold, but greater than 20 fold) | A (A=greater than 200 fold) | IC50 (HCT116): < 1000 nM
11 | ≤ 1000 | > 1000 | > 1000 | < 1000 | > 1000 | < 1000 | A (A=greater than 200 fold) | < 100 |  | CC(C)c1cnn2c(NCc3c(Cl)cccc3-n3ccc(C(C)(C)O)n3)nc(N3CCC(O)(CN)CC3)nc12 [Compound 238] | A (A=greater than 200 fold) | A (A=greater than 200 fold) | IC50 (HCT116): < 1000 nM
12 | ≤ 1000 | > 1000 | > 1000 | < 1000 | > 1000 | < 1000 | A (A=greater than 200 fold) | < 100 |  | CC(C)c1cnn2c(NCc3c(Cl)cccc3-c3cccc(C(C)(C)O)n3)nc(N3CCC(N)CC3)nc12 [Compound 241] | A (A=greater than 200 fold) | B (B=less than 200 fold, but greater than 20 fold) | IC50 (HCT116): < 1000 nM
